Data as given in patent publication US10172816B2, “Method of treating chronic obstructive pulmonary disease (CPD) with verproside” (YUNGJIN PHARMACEUTICAL CO., LTD, priority 2013, dated 2019).

Experiments:
[1] = system: KC/CXCL-1 (Chemokines Gro-α); assay: COPD mouse model (LPS+CS): KC/CXCL-1 in BALF by ELISA; assay type: in vivo, BALB/c mice; conditions: 15 mg/kg, p.o.
Method: 8 weeks aged BALB/c male mice was anaesthetized with 7% chloral hydrate and 100 μl of LPS+CS mixture {LPS (100 μg/ml)+standard cigarette extract (Cigarette smoking (CS), 4 mg/ml)=1:1} was inhaled to mice (i.t.) for three weeks once a week to prepare COPD animal model. Briefly, 100 μl of LPS+CS mixture was evenly inhaled to nose and mouth of fastened mice (i.t). […] After the end of experiment, the blood, BALF, and pneumonocyte of each mice were isolated and collected to test. The level of IL-1β, IL-6, TNF-a, IL-17, MCP-1, and GRO-a (BioSource, USA) in BALF isolated from mice was determined by enzyme-linked immuno-sorbent assay. Respective antibodies against L-1β, IL-6, TNF-a, IL-17, MCP-1, and GRO-a were diluted with a coating buffer solution (291195, R&D System, USA), coated on a microwell and left alone for overnight at 4° C. Each well was washed three times with washing buffer solution and 100 μl of 10-fold diluted serum was added thereto. […] The solution was left alone for 30 mins in shadow and added with 50 μl of stop solution (DY994, R&D system, USA) to determine the absorbance using by ELISA leader at 450 nm (340PC384, Molecular Devices, USA).

MIP-2/CXCL-2 = assay: COPD mouse model (LPS+CS): MIP-2/CXCL-2 in BALF by ELISA; assay type: in vivo, BALB/c mice; conditions: 15 mg/kg, p.o.
[2] = system: neutrophils and total immunocytes in BALF; assay: COPD rat model (cigarette smoke): immunocytes in BALF; assay type: in vivo, Sprague-Dawley rat; conditions: ATC2 and Verproside 30 mg/kg
Method: 3 kinds of test samples, i.e., ATC2 (30 mg/kg), Verproside (30 mg/kg), Daxas (main ingredient: Roflumilast, 1 mg/kg) were dissolved in PBS and uses as test samples.
ATC2, Verproside, Daxas were orally administrated to the mice at the dose of 4 mg/kg, 1 hour before prior the intratracheal instillation (i.t.).
(§1) The exposure of cigarette smoke was performed by using a cigarette smoke generator (CH Technology Corp. USA). In a detail, 1 hour after the orally administration of test samples using by Head/nose-only exposure unit (TSE System, German) according to nose-only method, the cigarette smoke was exposed by inhalation for 3 days every hour. 8 puffs (volume 35 ml, duration 2 sec, interval 1 time/min) per one piece of standard cigarette was performed in the experiment. The tested groups were divided into five groups, i.e., (i) normal group with no treatment (normal control, NC), (ii) control group exposed with cigarette smoke (COPD), (iii) test sample group treated with Daxas (1 mg/kg, p.o) 1 hr prior to cigarette smoke exposure (DA), (iv) test sample group treated with ATC2 (30 mg/ml, p.o) 1 hr prior to cigarette smoke exposure (YPL), and (v) test sample group treated with Verproside (30 mg/ml, p.o) 1 hr prior to cigarette smoke exposure (Ver). After the end of experiment, the blood, BALF, and pneumonocyte of each rat were isolated and collected to test.
After finishing the experiment, rats were anesthetized with Zoletil50 (3VX9, Virbac, France, p.o) and the blood was delivered through caudal veins. In order to isolate BALF from lung, the bronchus of right lung was ligated with suture and then performed to tracheotomy. IV-use catheter (16 GA, 3S-Cath, Dukwoo, Korea) was put into the bronchus, and both of bronchus and catheter (16 GA, 3S-Cath, Dukwoo, Korea) were fixed with suture. […] The light lung ligated with suture was isolated, fixed with 10% neutral formalin solution, and the remaining lung tissue was reserved in refrigerator at −70° C. […]

IL-1β, IL-6, and TNF-α = assay: COPD rat model (cigarette smoke): cytokine release in BALF by ELISA; assay type: in vivo, Sprague-Dawley rat; conditions: ATC2 and Verproside 30 mg/kg, Daxas 1 mg/kg, p.o.
Method: as §1
The level of IL-1β, IL-6, and TNF-a (R&D System, USA) in BALF isolated from the rat was determined by enzyme-linked immuno-sorbent assay (ELISA). The analysis of each cytokine was performed according to the manufacturer's manual, and the absorbance was determined at 450 nm by ELISA leader (340PC384, Molecular Devices, USA).

MMP-9 = assay: COPD rat model: MMP-9 activity in lung tissue (gelatin zymography); assay type: in vivo, Sprague-Dawley rat; conditions: ATC2 and Verproside 30 mg/kg, p.o.; level similar to Daxas group
Method: The exposure of cigarette smoke was performed by using a cigarette smoke generator (CH Technology Corp. USA). In a detail, 1 hour after the orally administration of test samples using by Head/nose-only exposure unit (TSE System, German) according to nose-only method, the cigarette smoke was exposed by inhalation for 3 days every hour. 8 puffs (volume 35 ml, duration 2 sec, interval 1 time/min) per one piece of standard cigarette was performed in the experiment. […]
The lung tissue of rat was homogenized with Tissue lysis buffer (C3228, Sigma-Aldrich, USA) treated with a protease inhibitor (11836153001, Roche, Germany) and the homogenized lung tissue was centrifuged at 12000 rpm for 10 mins to isolate the supernatant. The protein assay reagent (500-0006, Bio-Rad, USA) was used to quantification. […] The density of MMP-9 band was determined using by Chemi-doc (170-8070, Bio-Rad, USA) to determine the activity of MMP-9.

MMP-9 and NF-κB = assay: COPD rat model: expression of proinflammatory proteins in lung tissue (Western blotting); assay type: in vivo, Sprague-Dawley rat; conditions: ATC2 and Verproside 30 mg/kg, Daxas 1 mg/kg, p.o.
Method: (§2) The exposure of cigarette smoke was performed by using a cigarette smoke generator (CH Technology Corp. USA). In a detail, 1 hour after the orally administration of test samples using by Head/nose-only exposure unit (TSE System, German) according to nose-only method, the cigarette smoke was exposed by inhalation for 3 days every hour. 8 puffs (volume 35 ml, duration 2 sec, interval 1 time/min) per one piece of standard cigarette was performed in the experiment. The tested groups were divided into five groups, i.e., (i) normal group with no treatment (normal control, NC), (ii) control group exposed with cigarette smoke (COPD), (iii) test sample group treated with Daxas (1 mg/kg, p.o) 1 hr prior to cigarette smoke exposure (DA), (iv) test sample group treated with ATC2 (30 mg/ml, p.o) 1 hr prior to cigarette smoke exposure (YPL), and (v) test sample group treated with Verproside (30 mg/ml, p.o) 1 hr prior to cigarette smoke exposure (Ver).
The protein obtained from homogenization was performed to electrophoresis at the dose of 30 μg/lane and transferred using by polyvinylidene difluoride (PVDF) membrane (IPVH00010, Millipore, USA).

[3] = system: inflammation in lung tissue; assay: COPD rat model: histopathological examination of lung tissue; assay type: in vivo, Sprague-Dawley rat; conditions: p.o.
Method: as §2
Delivered lung was promptly fixed with 10% formaldehyde solution (F0161, SAMCHUN, Korea), and cut into slices. The slices were washed with running water for 8 hrs, embedded with epoxy, cut into slices with microtome (CUT4050, MicroTec, Germany) and stained with Hematoxylin (MHS-16, Sigma-Aldrich, USA) & Eosin (HT110-1-32, Sigma-Aldrich, USA). […]

O=C(O[C@H]1[C@@H]2C=CO[C@@H](O[C@@H]3O[C@H](CO)[C@@H](O)[C@H](O)[C@H]3O)[C@@H]2[C@@]2(CO)O[C@@H]12)c1ccc(O)c(O)c1 [verproside, 6-O-(3,4-dihydroxybenzoyl) catalpol]
reduction of chemokine KC/CXCL-1 in BALF compared with control group [1]: more than 57.4% | reduction of chemokines MIP-2/CXCL-2 in BALF compared with control group (MIP-2/CXCL-2): more than 63.0% | ratio of the number of neutrophils to that of immunocytes (counting 300 immunocytes) compared with COPD induced group ([2]; Daxas 1 mg/kg, p.o.): remarkably reduced ratio | level of neutrophils in BALF compared with COPD induced group ([2]; Daxas 1 mg/kg, p.o. 1 hr prior to cigarette smoke exposure): remarkably reduced level | level of total immunocytes in BALF compared with COPD induced group ([2]; p.o. 1 hr prior to cigarette smoke exposure): remarkably reduced level | level of cytokines (IL-1β, IL-6, TNF-α) in BALF compared with COPD induced group (IL-1β, IL-6, and TNF-α): significantly reduced level | activity of MMP-9 in lung tissue (MMP-9): remarkably reduced activity | expression of proinflammatory protein (MMP-9, NF-κB) in lung tissue compared with COPD induced group (MMP-9 and NF-κB): significant decreased | inhibitory effect on inflammation in lung tissue relative to Daxas group ([3]; ATC2 and Verproside 30 mg/kg versus Daxas 1 mg/kg): more potent | inflammation (infiltration of inflammatory cells) in lung tissue compared with COPD induced group ([3]; ATC2 and Verproside 30 mg/kg, Daxas 1 mg/kg): significant decreased
